Experimental data published in ChEMBL document CHEMBL4828725 (Eur J Med Chem, 2021).

Legend:
Penicillium decumbens = assay: Inhibition of Penicillium decumbens alpha-L-rhamnosidase using p-nitrophenyl glycoside as substrate assessed as release of p-nitrophenol at 1000 uM measured by spectrometric assay relative to control
[1] = Inhibition of bovine liver beta-glucosidase using p-nitrophenyl glycoside as substrate assessed as release of p-nitrophenol measured by spectrometric assay; parameters: species or system Bos taurus
[2] = target: T1, Alpha-mannosidase (Canavalia ensiformis) (UniProt C0HJB3); assay: Inhibition of jack bean alpha-mannosidase using p-nitrophenyl glycoside as substrate assessed as release of p-nitrophenol at 1000 uM measured by spectrometric assay relative to control
T1 sequence (whole entry): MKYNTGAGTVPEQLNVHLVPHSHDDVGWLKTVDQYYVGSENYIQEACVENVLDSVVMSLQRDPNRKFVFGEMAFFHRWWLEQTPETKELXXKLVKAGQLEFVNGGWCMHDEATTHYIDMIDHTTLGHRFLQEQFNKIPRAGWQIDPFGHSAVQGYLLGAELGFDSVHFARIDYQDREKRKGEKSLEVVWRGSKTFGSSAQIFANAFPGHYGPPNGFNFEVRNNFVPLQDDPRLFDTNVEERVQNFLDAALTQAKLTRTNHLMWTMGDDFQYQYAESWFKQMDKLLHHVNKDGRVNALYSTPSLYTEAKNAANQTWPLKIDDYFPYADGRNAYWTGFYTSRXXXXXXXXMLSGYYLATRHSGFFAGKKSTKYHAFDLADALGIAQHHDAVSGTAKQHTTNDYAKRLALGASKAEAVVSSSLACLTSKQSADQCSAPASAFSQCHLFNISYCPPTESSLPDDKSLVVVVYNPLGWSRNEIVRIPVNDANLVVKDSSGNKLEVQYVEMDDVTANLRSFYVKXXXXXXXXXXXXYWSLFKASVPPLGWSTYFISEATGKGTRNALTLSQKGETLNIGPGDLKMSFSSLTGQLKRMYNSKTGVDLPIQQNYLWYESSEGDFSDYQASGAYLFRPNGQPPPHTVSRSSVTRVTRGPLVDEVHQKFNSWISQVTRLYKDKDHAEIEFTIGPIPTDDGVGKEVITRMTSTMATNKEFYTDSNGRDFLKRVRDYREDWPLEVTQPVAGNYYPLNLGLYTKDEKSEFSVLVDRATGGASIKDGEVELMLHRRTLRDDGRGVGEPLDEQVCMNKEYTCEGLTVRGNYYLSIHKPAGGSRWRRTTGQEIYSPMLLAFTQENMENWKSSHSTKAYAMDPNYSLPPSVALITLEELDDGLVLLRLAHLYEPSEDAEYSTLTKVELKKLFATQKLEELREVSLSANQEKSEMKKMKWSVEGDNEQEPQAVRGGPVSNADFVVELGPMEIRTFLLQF

[3] = target: T2, Tissue alpha-L-fucosidase (Bos taurus, UniProt Q2KIM0); assay: Inhibition of bovine kidney alpha-L-fucosidase using p-nitrophenyl glycoside as substrate assessed as release of p-nitrophenol measured by spectrometric assay
T2 sequence (Q2KIM0 whole entry): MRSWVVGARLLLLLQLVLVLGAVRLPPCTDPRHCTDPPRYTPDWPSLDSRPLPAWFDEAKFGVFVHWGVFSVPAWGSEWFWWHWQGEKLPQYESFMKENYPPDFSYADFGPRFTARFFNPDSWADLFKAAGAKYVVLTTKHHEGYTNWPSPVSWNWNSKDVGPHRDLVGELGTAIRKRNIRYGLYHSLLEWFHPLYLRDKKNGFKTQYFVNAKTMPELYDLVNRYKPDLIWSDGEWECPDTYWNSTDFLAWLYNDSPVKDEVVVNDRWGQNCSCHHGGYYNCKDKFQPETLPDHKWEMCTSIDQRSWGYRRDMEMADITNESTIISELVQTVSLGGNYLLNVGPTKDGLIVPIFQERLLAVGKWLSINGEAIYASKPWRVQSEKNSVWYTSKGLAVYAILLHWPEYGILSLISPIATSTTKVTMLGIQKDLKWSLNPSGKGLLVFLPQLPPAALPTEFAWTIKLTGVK

Helix pomatia = assay: Inhibition of snail beta-mannosidase using p-nitrophenyl glycoside as substrate assessed as release of p-nitrophenol at 1000 uM measured by spectrometric assay relative to control
[4] = target: Beta-glucuronidase (Escherichia coli (strain K12)) (UniProt P05804); assay: Inhibition of Escherichia coli beta-glucuronidase using p-nitrophenyl glycoside as substrate assessed as release of p-nitrophenol at 1000 uM measured by spectrometric assay relative to control
Bos taurus [5] = species: Bos taurus; assay: Inhibition of bovine liver beta-glucosidase using p-nitrophenyl glycoside as substrate assessed as release of p-nitrophenol at 1000 uM measured by spectrometric assay relative to control; type: tissue-based
[6] = target: T3, Sucrase-isomaltase, intestinal (Rattus norvegicus, UniProt P23739); assay: Inhibition of rat intestinal sucrase using p-nitrophenyl glycoside as substrate assessed as release of p-nitrophenol measured by spectrometric assay; conditions: read-out: IC50
Alpha-galactosidase = Alpha-galactosidase (Coffea arabica, UniProt Q42656); assay: Inhibition of coffee beans alpha-galactosidase using p-nitrophenyl glycoside as substrate assessed as release of p-nitrophenol measured by spectrometric assay; conditions: read-out: IC50
[7] = Inhibition of jack bean alpha-mannosidase using p-nitrophenyl glycoside as substrate assessed as release of p-nitrophenol measured by spectrometric assay; parameters: species or system Canavalia ensiformis
[8] = target: T3, Sucrase-isomaltase, intestinal; assay: Inhibition of rat intestinal isomaltase using p-nitrophenyl glycoside as substrate assessed as release of p-nitrophenol measured by spectrometric assay; conditions: read-out: IC50
[9] = Inhibition of snail beta-mannosidase using p-nitrophenyl glycoside as substrate assessed as release of p-nitrophenol measured by spectrometric assay; parameters: species or system Helix pomatia
[10] = Inhibition of porcine kidney alpha-trehalase using p-nitrophenyl glycoside as substrate assessed as release of p-nitrophenol measured by spectrometric assay; parameters: species or system Sus scrofa
Sus scrofa = species: Sus scrofa; assay: Inhibition of porcine kidney alpha-trehalase using p-nitrophenyl glycoside as substrate assessed as release of p-nitrophenol at 1000 uM measured by spectrometric assay relative to control
[11] = Inhibition of rice alpha-glucosidase using p-nitrophenyl glycoside as substrate assessed as release of p-nitrophenol measured by spectrometric assay; parameters: species or system Oryza sativa; conditions: read-out: IC50
Beta-glucuronidase = Beta-glucuronidase (Escherichia coli (strain K12), UniProt P05804); assay: Inhibition of Escherichia coli beta-glucuronidase using p-nitrophenyl glycoside as substrate assessed as release of p-nitrophenol measured by spectrometric assay
[12] = target: T4, Tissue alpha-L-fucosidase (Bos taurus) (UniProt Q2KIM0); assay: Inhibition of bovine kidney alpha-L-fucosidase using p-nitrophenyl glycoside as substrate assessed as release of p-nitrophenol at 1000 uM measured by spectrometric assay relative to control; type: tissue-based
T4 sequence (whole entry): T2 sequence (Q2KIM0 whole entry)

[13] = Inhibition of Aspergillus niger amyloglucosidase using p-nitrophenyl glycoside as substrate assessed as release of p-nitrophenol measured by spectrometric assay
Prunus dulcis = assay: Inhibition of almond beta-glucosidase using p-nitrophenyl glycoside as substrate assessed as release of p-nitrophenol at 1000 uM measured by spectrometric assay relative to control
[14] = Inhibition of Penicillium decumbens alpha-L-rhamnosidase using p-nitrophenyl glycoside as substrate assessed as release of p-nitrophenol measured by spectrometric assay
[15] = Inhibition of bovine liver beta-galactosidase using p-nitrophenyl glycoside as substrate assessed as release of p-nitrophenol measured by spectrometric assay; type: tissue-based, Bos taurus
Aspergillus niger = assay: Inhibition of Aspergillus niger amyloglucosidase using p-nitrophenyl glycoside as substrate assessed as release of p-nitrophenol at 1000 uM measured by spectrometric assay relative to control
[16] = Inhibition of rat intestinal maltase using maltose as substrate assessed as release of D-glucose measured by spectrometric assay
[17] = Inhibition of almond beta-glucosidase using p-nitrophenyl glycoside as substrate assessed as release of p-nitrophenol measured by spectrometric assay; parameters: species or system Prunus dulcis
Bos taurus [18] = species: Bos taurus; assay: Inhibition of bovine liver beta-galactosidase using p-nitrophenyl glycoside as substrate assessed as release of p-nitrophenol at 1000 uM measured by spectrometric assay relative to control

Chain of Beta-glucuronidase (P05804 whole entry): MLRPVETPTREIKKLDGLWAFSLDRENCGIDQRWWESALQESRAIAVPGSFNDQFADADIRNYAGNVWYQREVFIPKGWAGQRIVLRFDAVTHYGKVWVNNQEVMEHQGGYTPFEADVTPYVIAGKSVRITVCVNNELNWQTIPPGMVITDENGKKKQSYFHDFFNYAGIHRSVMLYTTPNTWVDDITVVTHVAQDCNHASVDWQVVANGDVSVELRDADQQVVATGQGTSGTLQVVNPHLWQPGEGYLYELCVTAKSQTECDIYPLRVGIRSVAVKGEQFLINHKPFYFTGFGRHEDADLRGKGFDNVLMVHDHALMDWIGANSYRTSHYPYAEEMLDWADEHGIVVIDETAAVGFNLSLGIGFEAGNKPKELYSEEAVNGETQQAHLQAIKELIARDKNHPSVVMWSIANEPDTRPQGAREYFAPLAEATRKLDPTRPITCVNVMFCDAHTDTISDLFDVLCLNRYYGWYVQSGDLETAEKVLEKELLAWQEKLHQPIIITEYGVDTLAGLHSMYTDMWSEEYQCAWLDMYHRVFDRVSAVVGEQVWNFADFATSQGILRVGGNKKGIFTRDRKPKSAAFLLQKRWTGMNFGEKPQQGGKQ
Chain of Alpha-galactosidase (Q42656 whole entry): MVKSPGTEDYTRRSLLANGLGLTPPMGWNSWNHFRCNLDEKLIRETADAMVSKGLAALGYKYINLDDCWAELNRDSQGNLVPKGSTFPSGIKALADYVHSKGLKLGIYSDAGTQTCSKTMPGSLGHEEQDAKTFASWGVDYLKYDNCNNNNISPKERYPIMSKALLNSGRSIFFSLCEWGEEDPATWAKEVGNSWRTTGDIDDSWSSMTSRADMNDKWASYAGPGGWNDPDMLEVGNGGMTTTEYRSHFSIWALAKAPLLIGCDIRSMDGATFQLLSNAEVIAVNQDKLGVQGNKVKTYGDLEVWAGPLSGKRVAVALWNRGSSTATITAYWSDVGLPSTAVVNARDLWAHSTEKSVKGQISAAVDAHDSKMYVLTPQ
T3 sequence (P23739 1-1013 limits assumed): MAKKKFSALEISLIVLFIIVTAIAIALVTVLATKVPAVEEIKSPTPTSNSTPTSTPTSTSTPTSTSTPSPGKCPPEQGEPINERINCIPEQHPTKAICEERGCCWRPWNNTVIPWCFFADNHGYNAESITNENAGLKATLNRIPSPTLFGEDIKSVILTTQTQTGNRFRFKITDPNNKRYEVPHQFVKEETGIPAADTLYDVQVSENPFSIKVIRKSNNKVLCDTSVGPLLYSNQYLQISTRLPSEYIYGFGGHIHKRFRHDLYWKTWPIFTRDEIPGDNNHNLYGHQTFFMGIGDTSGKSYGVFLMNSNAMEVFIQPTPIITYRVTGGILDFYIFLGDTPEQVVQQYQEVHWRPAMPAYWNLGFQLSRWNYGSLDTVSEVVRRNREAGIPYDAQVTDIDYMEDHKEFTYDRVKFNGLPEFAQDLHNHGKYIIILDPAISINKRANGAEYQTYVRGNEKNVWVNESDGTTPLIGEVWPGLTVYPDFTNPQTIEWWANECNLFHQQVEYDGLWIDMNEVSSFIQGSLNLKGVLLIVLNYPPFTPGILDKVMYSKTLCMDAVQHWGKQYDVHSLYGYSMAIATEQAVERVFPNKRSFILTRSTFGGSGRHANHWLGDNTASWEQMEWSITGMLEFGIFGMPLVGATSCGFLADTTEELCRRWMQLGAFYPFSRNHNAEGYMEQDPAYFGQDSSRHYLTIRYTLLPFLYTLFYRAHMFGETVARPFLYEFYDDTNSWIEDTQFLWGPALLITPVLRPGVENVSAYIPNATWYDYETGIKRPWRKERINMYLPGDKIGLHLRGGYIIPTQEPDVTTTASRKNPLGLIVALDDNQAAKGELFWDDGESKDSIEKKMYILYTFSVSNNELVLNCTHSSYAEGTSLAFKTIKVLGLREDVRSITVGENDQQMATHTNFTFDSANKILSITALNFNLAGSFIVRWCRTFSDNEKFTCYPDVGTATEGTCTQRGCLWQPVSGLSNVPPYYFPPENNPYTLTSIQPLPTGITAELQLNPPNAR
T3 sequence (P23739 1014-1841 limits assumed): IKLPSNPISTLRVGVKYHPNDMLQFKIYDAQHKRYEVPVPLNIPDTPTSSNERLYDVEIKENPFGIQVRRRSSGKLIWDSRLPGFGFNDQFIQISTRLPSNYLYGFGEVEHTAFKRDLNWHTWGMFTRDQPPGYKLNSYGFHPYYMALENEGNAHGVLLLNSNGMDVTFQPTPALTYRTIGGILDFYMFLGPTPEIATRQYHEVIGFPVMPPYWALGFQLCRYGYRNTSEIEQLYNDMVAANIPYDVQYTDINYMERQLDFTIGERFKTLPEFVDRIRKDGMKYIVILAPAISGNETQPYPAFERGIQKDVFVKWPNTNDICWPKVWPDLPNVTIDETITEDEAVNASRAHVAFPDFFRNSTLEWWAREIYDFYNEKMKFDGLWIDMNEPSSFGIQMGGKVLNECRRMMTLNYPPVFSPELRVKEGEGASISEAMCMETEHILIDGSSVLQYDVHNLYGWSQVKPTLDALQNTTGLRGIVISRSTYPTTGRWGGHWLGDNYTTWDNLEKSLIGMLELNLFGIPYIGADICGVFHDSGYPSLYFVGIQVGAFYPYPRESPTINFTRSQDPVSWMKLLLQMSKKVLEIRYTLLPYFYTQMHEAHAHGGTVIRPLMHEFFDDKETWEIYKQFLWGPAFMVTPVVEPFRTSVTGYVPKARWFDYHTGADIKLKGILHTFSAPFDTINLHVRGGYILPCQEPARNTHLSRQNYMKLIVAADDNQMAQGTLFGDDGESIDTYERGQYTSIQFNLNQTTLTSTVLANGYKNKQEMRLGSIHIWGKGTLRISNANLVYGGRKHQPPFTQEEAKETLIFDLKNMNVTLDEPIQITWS
Chain of Beta-glucuronidase (Escherichia coli (strain K12)) (P05804 whole entry, looked up): as the sequence (P05804 whole entry) above

Row | SMILES | inhibition (Penicillium decumbens) | IC50 [1] | inhibition [2] | IC50 [3] | inhibition (Helix pomatia) | inhibition (Bos taurus [5]) | IC50 [6] | IC50 (Alpha-galactosidase) | IC50 [7] | IC50 [8] | IC50 [9] | IC50 [10] | inhibition (Sus scrofa) | IC50 [11] | inhibition [12] | IC50 [13] | inhibition (Prunus dulcis) | IC50 [14] | inhibition (Aspergillus niger) | IC50 [16] | further results
1 | CCCCCCCCCCC[C@]1(CO)NC[C@H](O)[C@@H](O)[C@@H]1O.Cl | 4.5% | Not Active | 2.1% | Not Active | 0% | 3.7% | 0.19 µM | 3.6 µM | Not Active | 1.1 µM | Not Active | Not Active | 20.3% | 0.02 µM | 6.6% | Not Active | 10% | Not Active | 0% | 0.032 µM | inhibition [4]: 25.2%; IC50 (Beta-glucuronidase): Not Active; IC50 ([15]; read-out: IC50): 70 µM; IC50 [17]: Not Active
2 | CCCCCC[C@]1(CO)NC[C@H](O)[C@@H](O)[C@@H]1O.Cl | 0.6% | Not Active | 5.5% | Not Active | 0% | 10.8% | 0.14 µM | 76 µM | Not Active | 0.55 µM | Not Active | Not Active | 11.7% | 0.037 µM | 4.3% | Not Active | 11.3% | Not Active | 5.4% | 0.034 µM | inhibition [4]: 21.1%; inhibition (Bos taurus [18]): 15.5%; IC50 (Beta-glucuronidase): Not Active; IC50 [15]: Not Active; IC50 [17]: Not Active
3 | CCCCCCC[C@]1(CO)NC[C@H](O)[C@@H](O)[C@@H]1O.Cl | 0% | Not Active | 17.3% | Not Active | 8.5% | 20.5% | 0.23 µM | 109 µM | Not Active | 0.55 µM | Not Active | Not Active | 12.9% | 0.05 µM | 45.9% | Not Active | 36.3% | Not Active | 12.2% | 0.036 µM | inhibition (Bos taurus [18]): 29%; IC50 (Beta-glucuronidase; read-out: IC50): 28 µM; IC50 [15]: Not Active; IC50 [17]: Not Active
